Converted amounts (≈) assume the structure as drawn.
Key:
Type in all cases: functional
Cyberlindnera jadinii = assay: Antifungal activity against Candida utilis ATCC 9950 after 24 hrs by micro broth dilution method; conditions: Williopsis jadinii, ATCC 9950, 24 h
Aspergillus flavus = assay: Antifungal activity against Aspergillus flavus after 24 hrs by micro broth dilution method
Shigella dysenteriae = assay: Antibacterial activity against Shigella dysenteriae ATCC 51252 after 24 hrs by micro broth dilution method; conditions: ATCC 51252, 24 h
Bacillus spizizenii = assay: Antibacterial activity against Bacillus subtilis ATCC 6633 after 24 hrs by micro broth dilution method; conditions: ATCC 6633, 24 h
Pseudomonas aeruginosa = assay: Antibacterial activity against Pseudomonas aeruginosa ATCC 27853 after 24 hrs by micro broth dilution method; conditions: ATCC 27853, 24 h
Staphylococcus aureus [1] = assay: Antibacterial activity against Staphylococcus aureus ATCC 25923 after 24 hrs by micro broth dilution method; conditions: ATCC 25923, 24 h
Bacillus sp. = assay: Antibacterial activity against Bacillus proteus ATCC 13315 after 24 hrs by micro broth dilution method; conditions: Bacillus sp. (in: firmicutes), ATCC 13315, 24 h
Candida albicans = assay: Antifungal activity against Candida albicans ATCC 90029 after 24 hrs by micro broth dilution method; conditions: ATCC 90029, 24 h
Micrococcus luteus = assay: Antibacterial activity against Micrococcus luteus ATCC 4698 after 24 hrs by micro broth dilution method; conditions: ATCC 4698, 24 h
Staphylococcus aureus [2] = assay: Antibacterial activity against methicillin-resistant Staphylococcus aureus N315 after 24 hrs by micro broth dilution method; conditions: N315, 24 h
Escherichia coli = assay: Antibacterial activity against Escherichia coli DH52 after 24 hrs by micro broth dilution method; conditions: DH52, 24 h
Candida = assay: Antifungal activity against Candida mycoderma after 24 hrs by micro broth dilution method

| Compound | MIC (Cyberlindnera jadinii) [µg/mL] | MIC (Aspergillus flavus) [µg/mL] | MIC (Shigella dysenteriae) [µg/mL] | MIC (Bacillus spizizenii) [µg/mL] | MIC (Pseudomonas aeruginosa) [µg/mL] | MIC (Staphylococcus aureus [1]) [µg/mL] | MIC (Bacillus sp.) [µg/mL] | MIC (Candida albicans) [µg/mL] | MIC (Micrococcus luteus) [µg/mL] | MIC (Staphylococcus aureus [2]) [µg/mL] | MIC (Escherichia coli) [µg/mL] | MIC (Candida) [µg/mL] |
| --- | --- | --- | --- | --- | --- | --- | --- | --- | --- | --- | --- | --- |
| N#CCN(Cc1cccc(F)c1)c1ccccc1 | 128 (≈ 533 µM) | 256 (≈ 1070 µM) | 128 (≈ 533 µM) | 128 (≈ 533 µM) | 256 (≈ 1070 µM) | 64 (≈ 266 µM) | 128 (≈ 533 µM) | 64 (≈ 266 µM) | 256 (≈ 1070 µM) | 128 (≈ 533 µM) | 256 (≈ 1070 µM) | 128 (≈ 533 µM) |
| CCCCCCN(CC#N)c1ccccc1 | 256 (≈ 1180 µM) | 128 (≈ 592 µM) | 512 (≈ 2370 µM) | 256 (≈ 1180 µM) | 512 (≈ 2370 µM) | 256 (≈ 1180 µM) | 256 (≈ 1180 µM) | 256 (≈ 1180 µM) | 256 (≈ 1180 µM) | 512 (≈ 2370 µM) | 128 (≈ 592 µM) | 256 (≈ 1180 µM) |
| CCCCCCCCCCN(CC#N)c1ccccc1 | 256 (≈ 940 µM) | 128 (≈ 470 µM) | 512 (≈ 1880 µM) | 64 (≈ 235 µM) | 256 (≈ 940 µM) | 128 (≈ 470 µM) | 128 (≈ 470 µM) | 128 (≈ 470 µM) | 128 (≈ 470 µM) | 128 (≈ 470 µM) | 64 (≈ 235 µM) | 128 (≈ 470 µM) |
| N#CCN(Cc1ccc(F)cc1F)c1ccccc1 | 512 (≈ 1980 µM) | 256 (≈ 991 µM) | 256 (≈ 991 µM) | 256 (≈ 991 µM) | 128 (≈ 496 µM) | 128 (≈ 496 µM) | 256 (≈ 991 µM) | 128 (≈ 496 µM) | 256 (≈ 991 µM) | 256 (≈ 991 µM) | 64 (≈ 248 µM) | 256 (≈ 991 µM) |
| Cc1ccc(N(CC#N)Cc2ccc(Cl)cc2Cl)cc1 | 64 (≈ 210 µM) | 128 (≈ 419 µM) | 256 (≈ 839 µM) | 512 (≈ 1680 µM) | 256 (≈ 839 µM) | 128 (≈ 419 µM) | 512 (≈ 1680 µM) | 64 (≈ 210 µM) | 512 (≈ 1680 µM) | 128 (≈ 419 µM) | 256 (≈ 839 µM) | 512 (≈ 1680 µM) |
| N#CCN(Cc1ccc(F)cc1)c1ccccc1 | 128 (≈ 533 µM) | 128 (≈ 533 µM) | 128 (≈ 533 µM) | 128 (≈ 533 µM) | 256 (≈ 1070 µM) | 256 (≈ 1070 µM) | 256 (≈ 1070 µM) | 64 (≈ 266 µM) | 512 (≈ 2130 µM) | 128 (≈ 533 µM) | 128 (≈ 533 µM) | 128 (≈ 533 µM) |
| N#CCN(Cc1ccccc1Cl)c1ccccc1 | 64 (≈ 249 µM) | 128 (≈ 499 µM) | 128 (≈ 499 µM) | 256 (≈ 997 µM) | 128 (≈ 499 µM) | 128 (≈ 499 µM) | 128 (≈ 499 µM) | 128 (≈ 499 µM) | 256 (≈ 997 µM) | 128 (≈ 499 µM) | 256 (≈ 997 µM) | 64 (≈ 249 µM) |
| COc1ccc(N(CC#N)Cc2ccc(F)cc2F)cc1 | 128 (≈ 444 µM) | 128 (≈ 444 µM) | 256 (≈ 888 µM) | 128 (≈ 444 µM) | 128 (≈ 444 µM) | 256 (≈ 888 µM) | 256 (≈ 888 µM) | 128 (≈ 444 µM) | 128 (≈ 444 µM) | 256 (≈ 888 µM) | 256 (≈ 888 µM) | 256 (≈ 888 µM) |
| N#CCN(Cc1ccc(Cl)cc1)c1ccccc1 | 128 (≈ 499 µM) | 256 (≈ 997 µM) | 128 (≈ 499 µM) | 128 (≈ 499 µM) | 64 (≈ 249 µM) | 128 (≈ 499 µM) | 128 (≈ 499 µM) | 128 (≈ 499 µM) | 128 (≈ 499 µM) | 256 (≈ 997 µM) | 128 (≈ 499 µM) | 128 (≈ 499 µM) |
| COc1ccc(N(CC#N)Cc2ccc(Cl)cc2Cl)cc1 | 128 (≈ 398 µM) | 128 (≈ 398 µM) | 128 (≈ 398 µM) | 256 (≈ 797 µM) | 256 (≈ 797 µM) | 128 (≈ 398 µM) | 128 (≈ 398 µM) | 64 (≈ 199 µM) | 256 (≈ 797 µM) | 128 (≈ 398 µM) | 256 (≈ 797 µM) | 64 (≈ 199 µM) |
| CCn1cc(C(=O)O)c(=O)c2cc(F)c(N3CCNCC3)cc21 [NORFLOXACIN] | – | – | 0.5 (≈ 1.57 µM) | 1 (≈ 3.13 µM) | 0.5 (≈ 1.57 µM) | 2 (≈ 6.26 µM) | 1 (≈ 3.13 µM) | – | 0.5 (≈ 1.57 µM) | 0.5 (≈ 1.57 µM) | 0.5 (≈ 1.57 µM) | – |
| OC(Cn1cncn1)(Cn1cncn1)c1ccc(F)cc1F [FLUCONAZOLE] | 1 (≈ 3.27 µM) | 64 (≈ 209 µM) | – | – | – | – | – | 0.5 (≈ 1.63 µM) | – | – | – | 2 (≈ 6.53 µM) |
